How the values were obtained:
[1] = Inhibition of Plasmodium vivax NMT
[2] = Inhibition of N-terminal 6His-tagged Plasmodium vivax NMT (27 to 410 residues) expressed in Escherichia coli Rosetta 2 (DE3) cells preincubated for 30 mins followed by myrCoA, PfARF and CPM addition by fluorescence based plate reader assay

IC50 [2] | SMILES | IC50 [1]
 | O=C(c1cccc(NCc2cc(-c3ccc(Cl)cc3)c[nH]c2=O)c1)N1CCOCC1 | 3.4 µM
5070 nM | Cc1c(CCOc2ccc3ccccc3c2-c2ccnc(N3CCNCC3)c2)c(C(=O)NCC(N)=O)nn1C | 
80.2 nM | Cc1nn(C)c(C)c1CCOc1cccnc1-c1cccc(N2CCNCC2)c1 | 
1000 nM | Cc1c(CCOc2ccc3ccccc3c2-c2ccnc(N3CCNCC3)c2)c(C(=O)Nc2cccnc2)nn1C | 

From ChEMBL document CHEMBL5543169, “Exploring Subsite Selectivity within Plasmodium vivax N-Myristoyltransferase Using Pyrazole-Derived Inhibitors” (J Med Chem, 2024)
